Measurements from patent US6479493B1, “Methods for treatment of type I diabetes” (Cell Pathways, Inc., priority 2001, dated 2002).
pIC50: −log10 of the molar value. Where a name gives a salt, the structure may show the parent alone.

Assays:
dogs = assay: acute / seven-dose toxicity in dogs; details: dog, in vivo
Experimental: Therefore, these dogs were subsequently administered seven consecutive doses of 1000 mg/kg/day.

PDE1 = assay: PDE inhibition, similar protocols; type: biochemical
rats [1] = assay: 28-day study in rats; type: in vivo, rat
Experimental: A 28-day study in rats was also carried out at 0, 50, 500 and 2000 mg/kg/day.

[2] = target: T1, cGMP binding sites of the GST-cGB-PDE5 fusion protein (Homo sapiens, UniProt O76074); assay: cGMP binding assay with GST-cGB-PDE5 fusion protein; details: 3H-cGMP 2 μM, 22° C., 1 hour
T1 construct: made in house; host or cells: E. coli BL21 (DE3)
Description: RT-PCR method is used to obtain the cGB domain of PDE5 with forward and reverse primers designed from bovine PDE5A cDNA sequence (McAllister-Lucas L. M. et al, J. Biol. Chem. 268, 22863-22873, 1993) and the selection among PDE 1-10 families. 5′-3′, Inc. kits for total RNA followed by oligo (dT) column purification of mRNA are used with HT-29 cells. […] It is then cloned into pGEX-5X-3 glutathione-S-ransferase (GST) fusion vector (Pharmacia Biotech )with tac promoter, and EcoRI and XhoI cut sites. The fusion vector is then transfected into E. Coli BL21 (DE3) bacteria (Invitrogen). The transfected BL21 bacteria is grown to log phase, and then IPTG is added as an inducer. The induction is carried at 20° C. for 24 hrs. The bacteria are harvested and lysed. The soluble cell lysate is incubated with GSH conjugated Sepharose 4B (GSH-Sepharose 4B). The GST-cGB-pDE5 fusion protein can bind to the GSH-Sepharose beads, and the other proteins are washed off from beads with excessive cold PBS.
Then, the mixture is transferred to Brandel MB-24 cell harvester with GF/B as the filter membrane followed by 2 washes with 10 mL of cold 5 mM potassium buffer(pH 6.8). The membranes are then cut out and transferred to scintillation vials followed by the addition of 1 mL of H2O and 6 mL of Ready Safe™ liquid scintillation cocktail to each vial. The vials are counted on a Beckman LS 6500 scintillation counter.
The quenching by filter membrane or other debris are also calibrated.

PDE 5 = PDE 5 (Homo sapiens, UniProt O76074); assay: competitive binding (with cGMP) to PDE5
human patients = assay: single, escalating dose human clinical safety trial; type: in vivo; details: humans, oral, 50, 100, 200 and 400 mg BID
Description: One skilled in the art should recognize that any of the side effects observed in these safety studies occurred at very high doses, in excess of recommended human doses and are extremely minimal compared to what one would expect at similar doses of other proposed therapies.

rats [3] = assay: acute toxicity study in rats; details: rat, in vivo
U937 cells = assay: apoptosis induction of U937 cells, active caspase 3 indirect immunofluorescence; type: cell-based; details: 1 μM, 24 hours
Experimental: U937 cells (from ATCC Rockville, Md.) were grown in RPMI media supplemented with 5% FCS, glutamine, antibiotic/antimycotic and sodium pyruvate. Total RNA was isolated from two U937 cultures, one treated with 5 nM TPA for 48 hours and one grown in normal media as listed above, using the Rouche High Pure RNA Isolation Kit (cat #1 828 665) as per manufacturers protocol. cDNA was then synthesized from the total RNA using GibcoBRL SuperscriptII (Cat #18064-022) reverse transcriptase as per manufacturers protocol. The resulting cDNA was used as a template for RT-PCR reactions using primer sets specific for PDE2 (forward: […], reverse: […]) or PDE5 (forward: […], reverse: […]). mRNA for PDE2 and 5 were both present in the untreated U937 cells. Upon treatment with TPA, the relative amounts of PDE2 mRNA increased 5 fold. Therefore, U937 cells treated with TPA and driven to differentiate into an activated macrophage like state have elevated levels of PDE2 mRNA (see FIG. 1).
The presence of PDE2 and PDE5 protein within U937 cells was confirmed by indirect immunofluorescence (IIF). U937 cells were cultured as above. Two U937 cultures, one grown in the presence of 5 nM TPA for 48 hours and one grown in normal media were processed. All cultures were collected by centrifugation (Shandon Cytospin, 2 minutes @600 rpm) onto poly-L lysine-coated slides and immediately fixed in fresh 3% paraformaldehyde buffered in PBS for 10 minutes. Adherent cultures were grown on coverslips and fixed as above. Cells were permeablized in 0.2% Triton-100 for 2 minutes. Slides were blocked with blocking buffer (5% goat serum, 5% glycerol, 1% gelatin from cold water fish skin and 0.04% NaN3 in PBS) for 1 hour at room temperature.
Slides were then incubated for 1 hour at 37° C. in a humid chamber with antibodies specific for PDE2 (generated in a sheep against the peptide […]) or PDE5 (generated in sheep against the peptide […]). […]
The level of apoptosis in U937 cells was quantified by scoring 500 consecutive cells for the presence of active caspase 3. […]

PDE4 = assay: PDE inhibition, similar protocols; type: biochemical
[4] = 28 days, 50, 500 and 2000 mg/kg/day

## CC1=C(CC(=O)NCc2ccccc2)c2cc(F)ccc2/C1=C\c1ccncc1 [Example 38, (Z)-5-Fluoro-2-methyl-(4-pyridylidene)-3-(N-benzyl)indenylacetamide Hydrochloride]
dogs; 1000 mg/kg
  signs of toxicity: no signs of toxicity
dogs; 1000 mg/kg/day
  signs of drug-related effects: At no time in either dosing phase were any obvious signs of drug-related effects observed
PDE1
  pIC50: 5.52
Rats [1]; 28 days
  macroscopic tissue changes at necropsy: No macroscopic tissue changes
Rats [1]; 28 days, 2000 mg/kg/day
  liver weights: statistically significant increase in liver weights
  thyroid weights: statistically significant increases in thyroid weights
Rats [1]; [4]
  body weight changes, ophthalmoscopic examinations, hematological and blood chemistry values, urinalysis: unremarkable
  clinical observations: no abnormal clinical observations
Rats [1]; 28 days, generally a small number of animals at 2000 mg/kg/day
  histopathological evaluation of tissues: traces of follicular cell hypertrophy, increased numbers of mitotic figures (suggestive of possible cell proliferation) in the thyroid gland and mild centrilobular hypertrophy in the liver
Rats [1]; 28 days, lower doses (50, 500 mg/kg/day)
  liver and thyroid weight increases at the lower doses: not statistically significant
[2]
  competition with cGMP in binding to the cGMP binding sites of GST-cGB-PDE5: does not bind to the cGMP-binding site of PDE5
PDE 5
  competitive (with cGMP) binding to PDE 5: does competitively (with cGMP) bind to PDE 5
Human patients
  side effects: no significant side effects at any dose
Rats [3]; ip, 1000 mg/kg
  body weight gain: reduced body weight gain
  necropsy findings: mesenteric adhesions seen in some animals
Rats [3]; po, 2000 mg/kg
  body weight gains: slightly reduced
U937 cells
  apoptosis by active caspase 3 image (FIG. 8): undergoing apoptosis as reflected by the presence of active caspase 3
PDE4
  pIC50: 5.22
